In article PMC9688307 (2022):

Tests used:
[1] = system: BP55 (DNA, aptamer) CCGCCGTTGGTGTGGTGGGCCTAGGGCCGGCGGCGCACAGCTGTTATAGACGTCT; experiment: ITC; conditions: 100 mM NaCl, 25 mM KCl, 10 mM MgCl2; 25 mM Tris-HCl pH 8.0, 2% DMSO; 500 μM BPA into 30 μM aptamer
[2] = system: BP35 (DNA, aptamer) CCGCCGTTGGTGTGGTGGGCCTAGGGCCGGCGGCG; experiment: ITC; conditions: 100 mM NaCl, 25 mM KCl, 10 mM MgCl2; 25 mM Tris-HCl pH 8.0, 2% DMSO; 500 μM BPA into 30 μM aptamer
[3] = system: BP33-27CA (DNA, aptamer) CCGCCGTTGGTGTGGTGGGCCTAGGGACGGCGG; experiment: ITC; conditions: 100 mM NaCl, 25 mM KCl, 10 mM MgCl2; 25 mM Tris-HCl pH 8.0, 2% DMSO; 500 μM BPA into 30 μM aptamer
[4] = system: BP29-3'-MB (DNA, aptamer) GCCGTTGGTGTGGTGGGCCTAGGGCCGGC; experiment: square wave voltammetry, aptamer-modified gold electrode; conditions: 100 mM NaCl, 25 mM KCl, 10 mM MgCl2, 25 mM Tris-HCl pH 8.0
[5] = system: BP34 (DNA, aptamer) CGCCGTTGGTGTGGTGGGCCTAGGGCCGGCGGCG; experiment: ITC; conditions: 100 mM NaCl, 25 mM KCl, 10 mM MgCl2; 25 mM Tris-HCl pH 8.0, 2% DMSO; 500 μM BPA into 30 μM aptamer
[6] = system: BP45 (DNA, aptamer) CCGCCGTTGGTGTGGTGGGCCTAGGGCCGGCGGCGCACAGCTGTT; experiment: ITC; conditions: 100 mM NaCl, 25 mM KCl, 10 mM MgCl2; 25 mM Tris-HCl pH 8.0, 2% DMSO; 500 μM BPA into 30 μM aptamer
[7] = system: BP33-23AT (DNA, aptamer) CCGCCGTTGGTGTGGTGGGCCTTGGGCCGGCGG; experiment: ITC; conditions: 100 mM NaCl, 25 mM KCl, 10 mM MgCl2; 25 mM Tris-HCl pH 8.0, 2% DMSO; 500 μM BPA into 30 μM aptamer
[8] = system: BP33-8TA (DNA, aptamer) CCGCCGTAGGTGTGGTGGGCCTAGGGCCGGCGG; experiment: ITC; conditions: 100 mM NaCl, 25 mM KCl, 10 mM MgCl2; 25 mM Tris-HCl pH 8.0, 2% DMSO; 500 μM BPA into 30 μM aptamer
[9] = system: BP33-16TA (DNA, aptamer) CCGCCGTTGGTGTGGAGGGCCTAGGGCCGGCGG; experiment: ITC; conditions: 100 mM NaCl, 25 mM KCl, 10 mM MgCl2; 25 mM Tris-HCl pH 8.0, 2% DMSO; 500 μM BPA into 30 μM aptamer
[10] = system: BP33-18GT (DNA, aptamer) CCGCCGTTGGTGTGGTGTGCCTAGGGCCGGCGG; experiment: ITC; conditions: 100 mM NaCl, 25 mM KCl, 10 mM MgCl2; 25 mM Tris-HCl pH 8.0, 2% DMSO; 500 μM BPA into 30 μM aptamer
[11] = system: BP33-stem-6GT (DNA, aptamer) CCGCCTTTGGTGTGGTGGGCCTAGGGCCGGCGG; experiment: ITC; conditions: 100 mM NaCl, 25 mM KCl, 10 mM MgCl2; 25 mM Tris-HCl pH 8.0, 2% DMSO; 500 μM BPA into 30 μM aptamer
[12] = system: BP31 (DNA, aptamer) CGCCGTTGGTGTGGTGGGCCTAGGGCCGGCG; experiment: ITC; conditions: 100 mM NaCl, 25 mM KCl, 10 mM MgCl2; 25 mM Tris-HCl pH 8.0, 2% DMSO; 500 μM BPA into 30 μM aptamer
[13] = system: BP33-17GT (DNA, aptamer) CCGCCGTTGGTGTGGTTGGCCTAGGGCCGGCGG; experiment: ITC; conditions: 100 mM NaCl, 25 mM KCl, 10 mM MgCl2; 25 mM Tris-HCl pH 8.0, 2% DMSO; 500 μM BPA into 30 μM aptamer
[14] = system: BP33-7TA (DNA, aptamer) CCGCCGATGGTGTGGTGGGCCTAGGGCCGGCGG; experiment: ITC; conditions: 100 mM NaCl, 25 mM KCl, 10 mM MgCl2; 25 mM Tris-HCl pH 8.0, 2% DMSO; 500 μM BPA into 30 μM aptamer
[15] = system: BP29 (DNA, aptamer) GCCGTTGGTGTGGTGGGCCTAGGGCCGGC; experiment: ITC; conditions: 100 mM NaCl, 25 mM KCl, 10 mM MgCl2; 25 mM Tris-HCl pH 8.0, 2% DMSO; 500 μM BPA into 30 μM aptamer
[16] = system: BP33-stem-29GT (DNA, aptamer) CCGCCGTTGGTGTGGTGGGCCTAGGGCCTGCGG; experiment: ITC; conditions: 100 mM NaCl, 25 mM KCl, 10 mM MgCl2; 25 mM Tris-HCl pH 8.0, 2% DMSO; 500 μM BPA into 30 μM aptamer
[17] = system: BP33-10GT (DNA, aptamer) CCGCCGTTGTTGTGGTGGGCCTAGGGCCGGCGG; experiment: ITC; conditions: 100 mM NaCl, 25 mM KCl, 10 mM MgCl2; 25 mM Tris-HCl pH 8.0, 2% DMSO; 500 μM BPA into 30 μM aptamer
[18] = system: BP40 (DNA, aptamer) CCGCCGTTGGTGTGGTGGGCCTAGGGCCGGCGGCGCACAG; experiment: ITC; conditions: 100 mM NaCl, 25 mM KCl, 10 mM MgCl2; 25 mM Tris-HCl pH 8.0, 2% DMSO; 500 μM BPA into 30 μM aptamer
[19] = system: BP63 (DNA, aptamer) CCGGTGGGTGGTCAGGTGGGATAGCGTTCCGCGTATGGCCCAGCGCATCACGGGTTCGCACCA; experiment: ITC; conditions: 100 mM NaCl, 25 mM KCl, 10 mM MgCl2; 25 mM Tris-HCl pH 8.0, 2% DMSO; 200 μM BPA into 20 μM aptamer
[20] = system: BP33-13TA (DNA, aptamer) CCGCCGTTGGTGAGGTGGGCCTAGGGCCGGCGG; experiment: ITC; conditions: 100 mM NaCl, 25 mM KCl, 10 mM MgCl2; 25 mM Tris-HCl pH 8.0, 2% DMSO; 500 μM BPA into 30 μM aptamer
[21] = system: BP33 (DNA, aptamer) CCGCCGTTGGTGTGGTGGGCCTAGGGCCGGCGG; experiment: ITC; conditions: 100 mM NaCl, 25 mM KCl, 10 mM MgCl2; 25 mM Tris-HCl pH 8.0, 2% DMSO; 500 μM BPA into 30 μM aptamer
[22] = system: BP33-stem-30GT (DNA, aptamer) CCGCCGTTGGTGTGGTGGGCCTAGGGCCGTCGG; experiment: ITC; conditions: 100 mM NaCl, 25 mM KCl, 10 mM MgCl2; 25 mM Tris-HCl pH 8.0, 2% DMSO; 500 μM BPA into 30 μM aptamer
[23] = system: BP33-26GT (DNA, aptamer) CCGCCGTTGGTGTGGTGGGCCTAGGTCCGGCGG; experiment: ITC; conditions: 100 mM NaCl, 25 mM KCl, 10 mM MgCl2; 25 mM Tris-HCl pH 8.0, 2% DMSO; 500 μM BPA into 30 μM aptamer
[24] = system: BP33-25GT (DNA, aptamer) CCGCCGTTGGTGTGGTGGGCCTAGTGCCGGCGG; experiment: ITC; conditions: 100 mM NaCl, 25 mM KCl, 10 mM MgCl2; 25 mM Tris-HCl pH 8.0, 2% DMSO; 500 μM BPA into 30 μM aptamer
[25] = system: BP33-12GT (DNA, aptamer) CCGCCGTTGGTTTGGTGGGCCTAGGGCCGGCGG; experiment: ITC; conditions: 100 mM NaCl, 25 mM KCl, 10 mM MgCl2; 25 mM Tris-HCl pH 8.0, 2% DMSO; 500 μM BPA into 30 μM aptamer
[26] = system: BP33-14GT (DNA, aptamer) CCGCCGTTGGTGTTGTGGGCCTAGGGCCGGCGG; experiment: ITC; conditions: 100 mM NaCl, 25 mM KCl, 10 mM MgCl2; 25 mM Tris-HCl pH 8.0, 2% DMSO; 500 μM BPA into 30 μM aptamer
[27] = system: BP33-11TA (DNA, aptamer) CCGCCGTTGGAGTGGTGGGCCTAGGGCCGGCGG; experiment: ITC; conditions: 100 mM NaCl, 25 mM KCl, 10 mM MgCl2; 25 mM Tris-HCl pH 8.0, 2% DMSO; 500 μM BPA into 30 μM aptamer
[28] = system: BP33-22TA (DNA, aptamer) CCGCCGTTGGTGTGGTGGGCCAAGGGCCGGCGG; experiment: ITC; conditions: 100 mM NaCl, 25 mM KCl, 10 mM MgCl2; 25 mM Tris-HCl pH 8.0, 2% DMSO; 500 μM BPA into 30 μM aptamer
[29] = system: BP33-15GT (DNA, aptamer) CCGCCGTTGGTGTGTTGGGCCTAGGGCCGGCGG; experiment: ITC; conditions: 100 mM NaCl, 25 mM KCl, 10 mM MgCl2; 25 mM Tris-HCl pH 8.0, 2% DMSO; 500 μM BPA into 30 μM aptamer
[30] = system: BP25 (DNA, aptamer) CGTTGGTGTGGTGGGCCTAGGGCCG; experiment: ITC; conditions: 100 mM NaCl, 25 mM KCl, 10 mM MgCl2; 25 mM Tris-HCl pH 8.0, 2% DMSO; 500 μM BPA into 30 μM aptamer
[31] = system: BP27 (DNA, aptamer) CCGTTGGTGTGGTGGGCCTAGGGCCGG; experiment: ITC; conditions: 100 mM NaCl, 25 mM KCl, 10 mM MgCl2; 25 mM Tris-HCl pH 8.0, 2% DMSO; 500 μM BPA into 30 μM aptamer
[32] = system: BP33-20CA (DNA, aptamer) CCGCCGTTGGTGTGGTGGGACTAGGGCCGGCGG; experiment: ITC; conditions: 100 mM NaCl, 25 mM KCl, 10 mM MgCl2; 25 mM Tris-HCl pH 8.0, 2% DMSO; 500 μM BPA into 30 μM aptamer
[33] = system: BP33-21CA (DNA, aptamer) CCGCCGTTGGTGTGGTGGGCATAGGGCCGGCGG; experiment: ITC; conditions: 100 mM NaCl, 25 mM KCl, 10 mM MgCl2; 25 mM Tris-HCl pH 8.0, 2% DMSO; 500 μM BPA into 30 μM aptamer
[34] = system: BP50 (DNA, aptamer) CCGCCGTTGGTGTGGTGGGCCTAGGGCCGGCGGCGCACAGCTGTTATAGA; experiment: ITC; conditions: 100 mM NaCl, 25 mM KCl, 10 mM MgCl2; 25 mM Tris-HCl pH 8.0, 2% DMSO; 500 μM BPA into 30 μM aptamer
[35] = system: BP33-9GT (DNA, aptamer) CCGCCGTTTGTGTGGTGGGCCTAGGGCCGGCGG; experiment: ITC; conditions: 100 mM NaCl, 25 mM KCl, 10 mM MgCl2; 25 mM Tris-HCl pH 8.0, 2% DMSO; 500 μM BPA into 30 μM aptamer
[36] = 100 μM tested, no remarkable current change

SMILES: CC(C)(c1ccc(O)cc1)c1ccc(O)cc1
- Kd [1]: 11.6 ± 1.0 µM
- Kd [2]: 20.2 ± 1.0 µM
- Kd [3]: 16.0 ± 2.2 µM
- binding ([4]; current increased 88% at 500 μM BPA): yes
- Kd [5]: 307 ± 249 µM
- Kd [6]: 12.5 ± 0.8 µM
- binding [7]: no
- binding [8]: no
- Kd [9]: 24.4 ± 1.6 µM
- binding [10]: no
- binding [11]: no
- Kd [12]: 13.4 ± 1.5 µM
- binding [13]: no
- Kd [14]: 68.4 ± 4.9 µM
- Kd [15]: 12.4 ± 3.4 µM
- binding [16]: no
- binding [17]: no
- Kd [18]: 15.4 ± 0.9 µM
- binding [19]: no
- Kd [20]: 22.6 ± 6.9 µM
- Kd [21]: 10.5 ± 1.5 µM
- Kd [22]: 51.2 ± 10.4 µM
- binding [23]: no
- binding [24]: no
- binding [25]: no
- binding [26]: no
- Kd [27]: 24.4 ± 1.8 µM
- Kd [28]: 15.2 ± 0.9 µM
- binding [29]: no
- binding [30]: no
- Kd [31]: 56 ± 9.0 µM
- Kd [32]: 14.6 ± 0.9 µM
- Kd [33]: 10.5 ± 0.7 µM
- Kd [34]: 9.5 ± 0.5 µM
- binding [35]: no

SMILES: CN(C)[C@@H]1C(=O)C(C(N)=O)=C(O)[C@@]2(O)C(=O)C3=C(O)c4c(O)cccc4[C@@](C)(O)[C@H]3C[C@@H]12
- binding [4, 36]: no

SMILES: CN(C)[C@@H]1C(=O)C(C(N)=O)=C(O)[C@@]2(O)C(=O)C3=C(O)c4c(O)cccc4[C@@](C)(O)[C@H]3[C@H](O)[C@@H]12
- binding [4, 36]: no

SMILES: O=S(=O)(c1ccc(O)cc1)c1ccc(O)cc1
- binding [4, 36]: no

SMILES: Oc1ccc(-c2ccc(O)cc2)cc1
- binding [4, 36]: no
